Assays:
Format in all cases: in vivo
Conditions in all cases: 500 g/h, evaluated after 13 days
[1] = tested on: Amaranthus retoflexus (AMARE); experiment: Pre-emergence herbicidal glasshouse test, Amaranthus retoflexus (AMARE)
How it was run: (§1)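 Plants sprayed 1 day (pre-emergence) or 8 days (post-emergence) after sowing, at 500 g/h unless indicated, in acetone/water (50:50) with 0.5% Tween 20. Glasshouse 24/16 °C, 14 h light, 65% humidity. Damage scored at 13 days on a five-point scale (5=80-100% to 1=0-19%).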

[2] = tested on: Abutilon theophrasti (ABUTH); experiment: Pre-emergence herbicidal glasshouse test, Abutilon theophrasti (ABUTH)
How it was run: as §1

Setaria faberi (SETFA) [3] = experiment: Pre-emergence herbicidal glasshouse test, Setaria faberi (SETFA)
How it was run: as §1

[4] = tested on: Echinochloa crus-galli (ECHCG); experiment: Pre-emergence herbicidal glasshouse test, Echinochloa crus-galli (ECHCG)
How it was run: as §1

[5] = tested on: Ipomoea hederacea (IPOHE); experiment: Pre-emergence herbicidal glasshouse test, Ipomoea hederacea (IPOHE)
How it was run: as §1

[6] = tested on: Amaranthus retoflexus (AMARE); experiment: Post-emergence herbicidal glasshouse test, Amaranthus retoflexus (AMARE)
How it was run: as §1

[7] = tested on: Abutilon theophrasti (ABUTH); experiment: Post-emergence herbicidal glasshouse test, Abutilon theophrasti (ABUTH)
How it was run: as §1

Setaria faberi (SETFA) [8] = experiment: Post-emergence herbicidal glasshouse test, Setaria faberi (SETFA)
How it was run: as §1

[9] = tested on: Echinochloa crus-galli (ECHCG); experiment: Post-emergence herbicidal glasshouse test, Echinochloa crus-galli (ECHCG)
How it was run: as §1

[10] = tested on: Ipomoea hederacea (IPOHE); experiment: Post-emergence herbicidal glasshouse test, Ipomoea hederacea (IPOHE)
How it was run: as §1

CC(=Nc1c(C(F)(F)F)ccc(C(=O)Nc2nnc(C)o2)c1Cl)N(C)C [Compound 2.148]
5 (5=80-100%): PRE Application AMARE, percentage damage (five point scale) [1] | PRE Application ABUTH, percentage damage (five point scale) [2] | PRE Application SETFA, percentage damage (five point scale) (Setaria faberi (SETFA) [3]) | PRE Application ECHCG, percentage damage (five point scale) [4] | PRE Application IPOHE, percentage damage (five point scale) [5] | POST Application AMARE, percentage damage (five point scale) [6] | POST Application ABUTH, percentage damage (five point scale) [7] | POST Application SETFA, percentage damage (five point scale) (Setaria faberi (SETFA) [8]) | POST Application ECHCG, percentage damage (five point scale) [9]
3 (3=40-59%): POST Application IPOHE, percentage damage (five point scale) [10]

Cc1c(C(=O)C2=C(O)CCCC2=O)ccc(C(F)(F)F)c1N=CN(C)C [Compound 3.017]
3 (3=40-59%): POST Application AMARE, percentage damage (five point scale) [6]
5 (5=80-100%): PRE Application AMARE, percentage damage (five point scale) [1] | PRE Application ABUTH, percentage damage (five point scale) [2] | PRE Application ECHCG, percentage damage (five point scale) [4] | PRE Application IPOHE, percentage damage (five point scale) [5] | POST Application ABUTH, percentage damage (five point scale) [7] | POST Application SETFA, percentage damage (five point scale) (Setaria faberi (SETFA) [8]) | POST Application ECHCG, percentage damage (five point scale) [9] | POST Application IPOHE, percentage damage (five point scale) [10]
4 (4=60-79%): PRE Application SETFA, percentage damage (five point scale) (Setaria faberi (SETFA) [3])

Cc1c(C(=O)C2=C(O)CCCC2=O)ccc(S(C)(=O)=O)c1N=CN(C)C [Compound 3.025]
4 (4=60-79%): PRE Application SETFA, percentage damage (five point scale) (Setaria faberi (SETFA) [3]) | PRE Application IPOHE, percentage damage (five point scale) [5]
5 (5=80-100%): PRE Application AMARE, percentage damage (five point scale) [1] | PRE Application ABUTH, percentage damage (five point scale) [2] | PRE Application ECHCG, percentage damage (five point scale) [4] | POST Application AMARE, percentage damage (five point scale) [6] | POST Application ABUTH, percentage damage (five point scale) [7] | POST Application SETFA, percentage damage (five point scale) (Setaria faberi (SETFA) [8]) | POST Application ECHCG, percentage damage (five point scale) [9] | POST Application IPOHE, percentage damage (five point scale) [10]

CN(C)C=Nc1c(C(F)(F)F)ccc(C(=O)C2=C(O)CCCC2=O)c1Cl [Compound 3.049]
5 (5=80-100%): PRE Application AMARE, percentage damage (five point scale) [1] | PRE Application ABUTH, percentage damage (five point scale) [2] | PRE Application SETFA, percentage damage (five point scale) (Setaria faberi (SETFA) [3]) | PRE Application ECHCG, percentage damage (five point scale) [4] | PRE Application IPOHE, percentage damage (five point scale) [5] | POST Application AMARE, percentage damage (five point scale) [6] | POST Application ABUTH, percentage damage (five point scale) [7] | POST Application SETFA, percentage damage (five point scale) (Setaria faberi (SETFA) [8]) | POST Application ECHCG, percentage damage (five point scale) [9] | POST Application IPOHE, percentage damage (five point scale) [10]

CN(C)C=Nc1c(S(C)(=O)=O)ccc(C(=O)C2=C(O)CCCC2=O)c1Cl [Compound 3.057]
5 (5=80-100%): PRE Application AMARE, percentage damage (five point scale) [1] | PRE Application ABUTH, percentage damage (five point scale) [2] | PRE Application SETFA, percentage damage (five point scale) (Setaria faberi (SETFA) [3]) | PRE Application ECHCG, percentage damage (five point scale) [4] | PRE Application IPOHE, percentage damage (five point scale) [5] | POST Application AMARE, percentage damage (five point scale) [6] | POST Application ABUTH, percentage damage (five point scale) [7] | POST Application SETFA, percentage damage (five point scale) (Setaria faberi (SETFA) [8]) | POST Application ECHCG, percentage damage (five point scale) [9] | POST Application IPOHE, percentage damage (five point scale) [10]

CN(C=Nc1c(C(F)(F)F)ccc(C(=O)C2=C(O)CCCC2=O)c1Cl)CC(F)(F)F [Compound 3.130]
5 (5=80-100%): PRE Application AMARE, percentage damage (five point scale) [1] | PRE Application ABUTH, percentage damage (five point scale) [2] | PRE Application SETFA, percentage damage (five point scale) (Setaria faberi (SETFA) [3]) | PRE Application ECHCG, percentage damage (five point scale) [4] | PRE Application IPOHE, percentage damage (five point scale) [5] | POST Application AMARE, percentage damage (five point scale) [6] | POST Application ABUTH, percentage damage (five point scale) [7] | POST Application SETFA, percentage damage (five point scale) (Setaria faberi (SETFA) [8]) | POST Application ECHCG, percentage damage (five point scale) [9]
4 (4=60-79%): POST Application IPOHE, percentage damage (five point scale) [10]
